# Reference: patent publication US20220193181A1 (priority 2020, published 2022)
# Key:
# clotting factor X111 = molecular target: T1, clotting factor X111 (Homo sapiens, UniProt P00488); details: cited from earlier work
# T1 sequence (P00488 1-732): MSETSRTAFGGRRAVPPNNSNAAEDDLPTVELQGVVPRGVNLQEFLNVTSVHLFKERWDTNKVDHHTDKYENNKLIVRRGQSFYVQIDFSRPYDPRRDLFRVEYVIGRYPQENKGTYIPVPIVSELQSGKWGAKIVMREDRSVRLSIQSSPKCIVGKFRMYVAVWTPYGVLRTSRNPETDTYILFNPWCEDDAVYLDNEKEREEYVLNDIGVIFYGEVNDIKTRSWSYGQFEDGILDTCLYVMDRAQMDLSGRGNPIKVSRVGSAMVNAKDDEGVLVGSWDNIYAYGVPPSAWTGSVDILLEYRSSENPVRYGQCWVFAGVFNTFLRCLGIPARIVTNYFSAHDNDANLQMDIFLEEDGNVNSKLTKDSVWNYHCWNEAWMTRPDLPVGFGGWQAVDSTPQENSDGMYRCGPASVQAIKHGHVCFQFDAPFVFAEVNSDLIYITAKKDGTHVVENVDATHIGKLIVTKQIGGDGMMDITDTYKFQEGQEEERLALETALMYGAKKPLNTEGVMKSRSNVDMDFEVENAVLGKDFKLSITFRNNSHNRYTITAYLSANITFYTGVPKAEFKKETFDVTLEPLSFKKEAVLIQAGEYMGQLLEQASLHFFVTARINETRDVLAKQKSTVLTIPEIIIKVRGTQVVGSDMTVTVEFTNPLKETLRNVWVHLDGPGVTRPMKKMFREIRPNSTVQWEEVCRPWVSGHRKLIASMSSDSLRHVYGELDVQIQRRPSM
# SARS-CoV-1 = details: Vero E6 cells; cited from earlier work
# platelet aggregation = details: cited from earlier work
# vascular inflammation = details: previously reported by the inventors; cited from earlier work
# EAE mice = experiment: Adoptive transfer of B cells from N6022-treated mice to EAE mice
# GSNO reductase = GSNO reductase (Homo sapiens, UniProt P11766); details: cited from earlier work
# GSNO reductase, sequence (P11766 whole entry): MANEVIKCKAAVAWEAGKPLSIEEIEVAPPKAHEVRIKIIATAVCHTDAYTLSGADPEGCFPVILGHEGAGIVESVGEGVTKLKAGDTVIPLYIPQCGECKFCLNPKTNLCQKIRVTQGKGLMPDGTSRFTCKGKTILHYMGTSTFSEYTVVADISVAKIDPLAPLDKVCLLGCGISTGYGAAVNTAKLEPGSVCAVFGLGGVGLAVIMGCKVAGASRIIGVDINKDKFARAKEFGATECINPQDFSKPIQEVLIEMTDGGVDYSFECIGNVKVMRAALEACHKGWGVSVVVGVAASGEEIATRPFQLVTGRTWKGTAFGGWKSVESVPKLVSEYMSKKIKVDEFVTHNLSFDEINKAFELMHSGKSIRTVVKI
# SARS-CoV-2 patients = details: cited from earlier work
# [1] = B cells from N6022-treated EAE mice
# [2] = B cells from N6022-treated non-EAE mice
compound,measurement,setting,value
"CC(=O)N[C@@H](C(=O)O)C(C)(C)SN=O (racemic) [SNAP, reference compound]",clot formation,clotting factor X111,inhibited
same,clotting factor X111 (transglutaminase) activity,clotting factor X111,inhibited
same,viral protein and vRNA synthesis and replication of SARS-CoV-1,SARS-CoV-1,inhibit
"N[C@@H](CCC(=O)N[C@@H](CSN=O)C(=O)NCC(=O)O)C(=O)O [GSNO, S-nitrosoglutathione]",platelet aggregation,platelet aggregation,inhibit
same,clot formation,clotting factor X111,inhibited
same,clotting factor X111 (transglutaminase) activity,clotting factor X111,inhibited
same,vascular inflammation,vascular inflammation,inhibit
same,vascular integrity,vascular inflammation,protect
same,Spike S1 induced T cell responses (Th1 and Th17 cells) in spleen,Spike S1 treated mice; greater effects on Th17 cells,down regulated
same,IL-6 positive B cells in spleen,"Spike S1 treated mice; mouse, in vivo",decreased
same,IL-10 positive B cells in spleen,"Spike S1 treated mice; mouse, in vivo",increased
same,Treg cells in spleen,"Spike S1 treated mice; mouse, in vivo",practically no effect
Cc1cc(C(N)=O)ccc1-n1c(CCC(=O)O)ccc1-c1ccc(-n2ccnc2)cc1 [N6022],TH17 cells in the CNS of recipients,EAE mice; [1],decreased
same,blood IL-6 levels of recipients,EAE mice; [1],decreased
same,blood IL-10 levels of recipients,EAE mice; [1],increased
same,number of Treg cells in the CNS of recipients,EAE mice; [1],increased
same,blood cytokine levels and CNS Treg and TH17 cells of recipients,EAE mice; [2],no significant alterations
same,disease of recipient EAE mice,EAE mice; [2],no disease attenuation
same,vascular inflammation,vascular inflammation,inhibit
same,vascular integrity,vascular inflammation,protect
same,GSNO reductase inhibition,GSNO reductase,potent and reversible
TCZ: IL6 receptor antibody that blocks IL-6 signaling,patients in whom the optical lung lesion on CT scan resolved,SARS-CoV-2 patients; in vivo,90.5%
same,patients whose lymphocyte counts returned to normal,SARS-CoV-2 patients; in vivo,53%
same,patients with improved oxygenation,SARS-CoV-2 patients; in vivo,75%
same,reducing fever,SARS-CoV-2 patients; within a few days,effective
